Assay [1] deals with human breast MDA-MB-361 tumor cell line. Description: In vitro cell culture growth assay (MTS), MDA-MB-361. In kind it is cell-based. The conditions noted are these: Homo sapiens, MDA-MB-361, 72 h; MTS cell growth assay, three days after drug treatment; read-out: IC50 MDA-MB-361.
Assay [2] relates to human prostate PC3-mm2 tumor cell line. The experiment in a line: In vitro cell culture growth assay (MTS), PC3-mm2. The format is cell-based. The conditions noted are these: Homo sapiens, PC3MM2, 72 h.
The target in the next assay is PI3K-α (Homo sapiens, UniProt P42336). The experiment in a line: PI3K-alpha fluorescence polarization assay. The conditions noted are these: read-out: IC50 PI3Kα.
PI3K-α, sequence (P42336 whole entry, species assumed): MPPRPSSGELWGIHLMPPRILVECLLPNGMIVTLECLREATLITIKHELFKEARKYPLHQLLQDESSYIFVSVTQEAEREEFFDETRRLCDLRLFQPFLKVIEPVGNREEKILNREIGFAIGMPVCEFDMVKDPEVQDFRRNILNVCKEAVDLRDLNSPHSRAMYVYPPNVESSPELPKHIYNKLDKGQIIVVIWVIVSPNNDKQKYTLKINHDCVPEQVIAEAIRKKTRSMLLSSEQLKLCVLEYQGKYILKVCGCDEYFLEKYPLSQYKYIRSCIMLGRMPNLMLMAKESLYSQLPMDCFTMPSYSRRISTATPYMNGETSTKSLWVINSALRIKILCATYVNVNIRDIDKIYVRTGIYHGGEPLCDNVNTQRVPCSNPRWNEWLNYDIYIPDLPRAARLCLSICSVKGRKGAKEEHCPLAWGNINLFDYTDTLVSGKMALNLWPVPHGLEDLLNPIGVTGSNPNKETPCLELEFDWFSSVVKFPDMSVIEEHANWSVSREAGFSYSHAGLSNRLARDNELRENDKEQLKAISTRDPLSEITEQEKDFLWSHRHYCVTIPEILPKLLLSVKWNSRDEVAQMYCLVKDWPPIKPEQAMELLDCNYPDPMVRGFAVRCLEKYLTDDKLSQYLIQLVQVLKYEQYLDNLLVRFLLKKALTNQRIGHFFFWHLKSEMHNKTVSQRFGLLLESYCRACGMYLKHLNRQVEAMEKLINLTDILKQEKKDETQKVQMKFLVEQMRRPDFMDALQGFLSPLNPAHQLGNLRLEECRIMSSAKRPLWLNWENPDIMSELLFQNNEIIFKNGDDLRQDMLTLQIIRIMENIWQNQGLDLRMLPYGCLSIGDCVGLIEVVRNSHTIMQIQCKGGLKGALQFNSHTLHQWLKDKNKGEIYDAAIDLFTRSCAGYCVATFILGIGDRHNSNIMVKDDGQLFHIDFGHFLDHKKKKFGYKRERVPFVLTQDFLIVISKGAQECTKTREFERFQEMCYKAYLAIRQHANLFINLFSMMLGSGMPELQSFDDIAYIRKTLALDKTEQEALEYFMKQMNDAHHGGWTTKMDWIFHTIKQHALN
PI3K-α, sequence (P27986 whole entry partner, species assumed): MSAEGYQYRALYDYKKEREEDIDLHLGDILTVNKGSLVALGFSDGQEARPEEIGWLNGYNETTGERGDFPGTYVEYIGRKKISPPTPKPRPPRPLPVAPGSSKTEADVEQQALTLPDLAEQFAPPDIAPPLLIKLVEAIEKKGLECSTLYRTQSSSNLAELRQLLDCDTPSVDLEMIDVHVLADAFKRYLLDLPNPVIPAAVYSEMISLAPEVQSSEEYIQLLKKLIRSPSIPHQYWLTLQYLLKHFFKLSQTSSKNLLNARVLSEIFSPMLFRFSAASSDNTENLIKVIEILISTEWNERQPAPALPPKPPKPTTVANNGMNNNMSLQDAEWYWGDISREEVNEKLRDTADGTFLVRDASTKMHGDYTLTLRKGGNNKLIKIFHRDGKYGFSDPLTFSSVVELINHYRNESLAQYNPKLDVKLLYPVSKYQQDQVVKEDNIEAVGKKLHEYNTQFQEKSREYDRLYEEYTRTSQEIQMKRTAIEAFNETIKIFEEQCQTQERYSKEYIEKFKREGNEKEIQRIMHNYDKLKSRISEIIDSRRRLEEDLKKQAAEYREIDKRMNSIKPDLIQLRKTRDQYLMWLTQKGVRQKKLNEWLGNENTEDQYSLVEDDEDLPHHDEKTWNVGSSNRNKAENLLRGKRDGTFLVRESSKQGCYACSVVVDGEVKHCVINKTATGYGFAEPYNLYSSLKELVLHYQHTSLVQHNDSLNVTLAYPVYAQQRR
A further assay addresses Human mTOR (FLAG-TOR) (Homo sapiens, UniProt P42345). The experiment in a line: mTOR kinase assay (DELFIA format, purified enzyme). In kind it is biochemical. The conditions noted are these: read-out: IC50 mTOR.
In the next assay the target is PI3K-γ (Homo sapiens, UniProt P48736). The experiment in a line: PI3K-gamma fluorescence polarization assay. The conditions noted are these: read-out: IC50 PI3Kγ.
PI3K-γ, sequence (P48736 whole entry, species assumed): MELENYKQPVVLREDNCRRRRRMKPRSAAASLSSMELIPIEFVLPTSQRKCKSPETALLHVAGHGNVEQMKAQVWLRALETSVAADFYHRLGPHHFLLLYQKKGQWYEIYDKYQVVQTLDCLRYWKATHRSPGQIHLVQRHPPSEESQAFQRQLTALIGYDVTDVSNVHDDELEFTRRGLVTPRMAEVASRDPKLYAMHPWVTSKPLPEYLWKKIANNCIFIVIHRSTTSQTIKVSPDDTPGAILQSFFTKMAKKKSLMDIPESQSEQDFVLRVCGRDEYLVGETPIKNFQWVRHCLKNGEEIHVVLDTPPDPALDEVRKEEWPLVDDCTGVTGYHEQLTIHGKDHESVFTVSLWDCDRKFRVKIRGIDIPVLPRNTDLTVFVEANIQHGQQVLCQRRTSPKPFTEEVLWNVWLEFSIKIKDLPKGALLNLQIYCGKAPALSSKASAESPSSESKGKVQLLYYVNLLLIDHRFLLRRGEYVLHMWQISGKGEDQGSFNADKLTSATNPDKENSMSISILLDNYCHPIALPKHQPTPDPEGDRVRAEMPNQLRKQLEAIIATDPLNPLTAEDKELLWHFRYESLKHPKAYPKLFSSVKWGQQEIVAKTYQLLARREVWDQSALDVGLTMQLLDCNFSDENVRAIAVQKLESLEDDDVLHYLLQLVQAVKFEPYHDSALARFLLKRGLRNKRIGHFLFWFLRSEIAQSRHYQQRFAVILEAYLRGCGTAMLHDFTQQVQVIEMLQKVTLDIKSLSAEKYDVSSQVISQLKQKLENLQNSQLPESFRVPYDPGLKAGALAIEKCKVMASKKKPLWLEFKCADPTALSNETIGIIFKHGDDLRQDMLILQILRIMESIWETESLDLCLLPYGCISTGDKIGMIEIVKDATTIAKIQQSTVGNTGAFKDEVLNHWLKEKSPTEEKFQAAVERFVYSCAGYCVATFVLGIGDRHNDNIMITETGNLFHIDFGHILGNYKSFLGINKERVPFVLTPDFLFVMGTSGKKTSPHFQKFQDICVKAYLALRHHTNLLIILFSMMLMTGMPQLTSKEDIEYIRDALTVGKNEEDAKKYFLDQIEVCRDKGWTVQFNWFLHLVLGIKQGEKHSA
The mark [3] stands for this setting: MTS cell growth assay, three days after drug treatment, read-out: IC50 PC3-mm2.
The mark [4] stands for this setting: MTS cell growth assay, three days after drug treatment, PC3-mm2 cells, read-out: IC50 PC3-mm2.

The values that follow come from patent US20090304692A1, “TRIAZINE COMPOUNDS AS PI3 KINASE AND MTOR INHIBITORS” (Wyeth, priority 2008, published 2009).

“And” between values parts separate entries of the source, which are not always exact repeats. Equal values may be shown once. Read-outs that look alike come from different tables or passages of the source. Bounds are passed on as bounds.

Human mTOR (FLAG-TOR), sequence (P42345 1360-2549 limits assumed): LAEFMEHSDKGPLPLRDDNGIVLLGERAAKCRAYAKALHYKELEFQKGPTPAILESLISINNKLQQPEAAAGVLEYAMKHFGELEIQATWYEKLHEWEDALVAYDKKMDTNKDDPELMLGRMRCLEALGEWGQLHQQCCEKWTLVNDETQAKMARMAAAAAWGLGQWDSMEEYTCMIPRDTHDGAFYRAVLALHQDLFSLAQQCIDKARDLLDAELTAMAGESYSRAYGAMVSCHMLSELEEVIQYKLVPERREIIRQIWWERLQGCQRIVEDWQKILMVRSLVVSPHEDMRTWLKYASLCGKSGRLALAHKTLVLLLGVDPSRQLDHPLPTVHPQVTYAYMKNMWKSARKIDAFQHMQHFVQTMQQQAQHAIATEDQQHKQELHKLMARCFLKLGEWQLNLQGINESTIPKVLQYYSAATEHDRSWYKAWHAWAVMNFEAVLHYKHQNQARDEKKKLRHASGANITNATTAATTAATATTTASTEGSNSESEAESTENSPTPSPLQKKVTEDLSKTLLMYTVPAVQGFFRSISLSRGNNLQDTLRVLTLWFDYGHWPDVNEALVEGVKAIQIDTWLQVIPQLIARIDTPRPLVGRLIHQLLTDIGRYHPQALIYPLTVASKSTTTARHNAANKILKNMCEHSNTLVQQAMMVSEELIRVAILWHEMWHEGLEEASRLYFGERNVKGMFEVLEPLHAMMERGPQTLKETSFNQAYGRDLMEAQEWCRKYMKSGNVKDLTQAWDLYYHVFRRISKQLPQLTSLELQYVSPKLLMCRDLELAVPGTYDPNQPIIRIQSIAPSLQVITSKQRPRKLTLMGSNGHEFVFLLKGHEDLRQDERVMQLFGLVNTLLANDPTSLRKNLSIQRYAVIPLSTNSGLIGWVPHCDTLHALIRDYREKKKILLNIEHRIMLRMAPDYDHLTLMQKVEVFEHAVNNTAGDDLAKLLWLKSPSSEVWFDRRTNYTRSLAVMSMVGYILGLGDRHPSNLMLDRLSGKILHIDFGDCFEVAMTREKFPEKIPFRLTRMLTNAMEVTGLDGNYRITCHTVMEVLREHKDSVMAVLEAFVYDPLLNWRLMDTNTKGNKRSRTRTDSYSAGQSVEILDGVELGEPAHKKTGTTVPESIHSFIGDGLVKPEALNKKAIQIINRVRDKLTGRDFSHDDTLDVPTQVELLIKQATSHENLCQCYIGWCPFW

For the compound `O=C(Nc1ccc(C(=O)NC2CN3CCC2CC3)cc1)Nc1ccc(-c2nc(N3CCOCC3)nc(N3CCOCC3)n2)cc1` (stereo not shown) [Example 73, 4-(3-(4-(4,6-dimorpholino-1,3,5-triazin-2-yl)phenyl)ureido)-N-(quinuclidin-3-yl)benzamide], the IC50 in assay [1] turned out to be 0.03 µM; in assay [2] (setting [3]) it was 0.107 µM; on PI3K-α it was 0.0003 µM; at Human mTOR (FLAG-TOR), 0.00077 µM; at PI3K-γ, 0.007 µM.
Turning to `O=C(Nc1ccc(C(=O)N2CCC(N3CCCC3)CC2)cc1)Nc1ccc(-c2nc(N3CCOCC3)nc(N3CCOCC3)n2)cc1` [Example 74, 1-(4-(4,6-dimorpholino-1,3,5-triazin-2-yl)phenyl)-3-(4-(4-(pyrrolidin-1-yl)piperidine-1-carbonyl)phenyl)urea], the IC50 in assay [1] is < 0.003 µM; in assay [2] (setting [3]) it was 0.00833 µM; on PI3K-α, 0.0004 µM; on PI3K-α (listed as 179), 0.001 µM; at Human mTOR (FLAG-TOR), 0.001 µM and 0.00063 µM; at PI3K-γ, 0.008 µM. Also, on PI3K-γ (listed as 179), the IC50 came to 0.013 µM.
With `O=C(Nc1ccc(C(=O)N2CCC(N3CCCCC3)CC2)cc1)Nc1ccc(-c2nc(N3CCOCC3)nc(N3CCOCC3)n2)cc1` [Example 75, 1-(4-(1,4′-bipiperidine-1′-carbonyl)phenyl)-3-(4-(4,6-dimorpholino-1,3,5-triazin-2-yl)phenyl)urea], the concentration for half-maximal inhibition (IC50) in assay [1] is < 0.003 µM; in assay [2] (read-out: IC50 PC3-mm2, MTS cell growth assay, three days after drug treatment) it was 0.007 µM; at PI3K-α, 0.0006 µM; at Human mTOR (FLAG-TOR), 0.00075 µM; at PI3K-γ it was 0.01 µM.
With `O=C(Nc1ccc(C(=O)N2CCNCC2)cc1)Nc1ccc(-c2nc(N3CCOCC3)nc(N3CCOCC3)n2)cc1` [Example 77, 1-(4-(4,6-dimorpholino-1,3,5-triazin-2-yl)phenyl)-3-(4-(piperazine-1-carbonyl)phenyl)urea], the IC50 was < 0.03 µM in assay [1]; < 0.03 µM in assay [2] (setting [3]); 0.0003 µM on PI3K-α; 0.00068 µM on Human mTOR (FLAG-TOR); 0.004 µM at PI3K-γ.
`C[C@H]1COCCN1c1nc(-c2ccc(NC(=O)Nc3ccncc3)cc2)nc(N2CCOCC2)n1` [Example 89, 1-(4-{4-[(3S)-3-methylmorpholin-4-yl]-6-morpholin-4-yl-1,3,5-triazin-2-yl}phenyl)-3-pyridin-4-ylurea]: the IC50 in assay [1] is 0.03 µM; in assay [2] (setting [3]) it was 0.047 µM; at PI3K-α, 0.01 µM; on Human mTOR (FLAG-TOR) it was 0.0016 µM; at PI3K-γ it was 0.031 µM.
For the compound `Cc1cc(NC(=O)Nc2ccc(-c3nc(N4CCOCC4)nc(N4CCOC[C@@H]4C)n3)cc2)ccn1` [Example 92, 1-(4-{4-[(3S)-3-methylmorpholin-4-yl]-6-morpholin-4-yl-1,3,5-triazin-2-yl}phenyl)-3-(2-methylpyridin-4-yl)urea], the IC50 in assay [1] was found to be 0.14 µM; in assay [2] (setting [3]), 0.087 µM; at PI3K-α, 0.011 µM; on Human mTOR (FLAG-TOR), 0.00235 µM; at PI3K-γ it was 0.092 µM.
The like results for `CC(O)c1ccc(NC(=O)Nc2ccc(-c3nc(N4CCOCC4)nc(N4CCOC[C@@H]4C)n3)cc2)cc1` (stereo partly drawn) [Example 93, 1-[4-(1-hydroxyethyl)phenyl]-3-(4-{4-[(3S)-3-methylmorpholin-4-yl]-6-morpholin-4-yl-1,3,5-triazin-2-yl}phenyl)urea] were, in that order, 0.042 µM, 0.06 µM, 0.012 µM, 0.00855 µM and 0.133 µM.
For `CC(C)Oc1nc(-c2ccc(NC(=O)Nc3ccncc3)cc2)nc(N2CCOCC2)n1` [Example 94, 1-[4-(4-isopropoxy-6-morpholin-4-yl-1,3,5-triazin-2-yl)phenyl]-3-pyridin-4-ylurea], the IC50 in assay [1] came out at 0.054 µM; in assay [2] (setting [3]), 0.082 µM; on PI3K-α, 0.005 µM; on Human mTOR (FLAG-TOR), 0.001 µM; at PI3K-γ, 0.056 µM.
For `COC(=O)c1ccc(NC(=O)Nc2ccc(-c3nc(OC(C)C)nc(N4CCOCC4)n3)cc2)cc1` [Example 95, methyl 4-({[4-(4-isopropoxy-6-morpholin-4-yl-1,3,5-triazin-2-yl)phenyl]carbamoyl}amino)benzoate], the half-maximal inhibitory concentration (IC50) stood at 0.333 µM in assay [1]; 0.364 µM in assay [2] (setting [3]); 0.048 µM at PI3K-α; 0.00275 µM on Human mTOR (FLAG-TOR); 0.101 µM on PI3K-γ.
Consider `O=C(Nc1ccncc1)Nc1ccc(-c2nc(C3=CCOCC3)nc(N3CCOCC3)n2)cc1` [Example 100, 1-{4-[4-(3,6-Dihydro-2H-pyran-4-yl)-6-morpholin-4-yl-[1,3,5]triazin-2-yl]-phenyl}-3-pyridin-4-yl-urea], for which the half-maximal inhibitory concentration (IC50) in assay [1] is 0.056 µM; in assay [2] (setting [3]), 0.056 µM; at PI3K-α, 0.005 µM; at Human mTOR (FLAG-TOR) it was 0.0035 µM; at PI3K-γ, 0.038 µM.
On to `CN1C2CCC1CC(Oc1nc(-c3ccc(NC(=O)Nc4ccncc4)cc3)nc(N3CCOCC3)n1)C2` (stereo not shown) [Example 102, 1-{4-[4-(8-methyl-8-aza-bicyclo[3.2.1]oct-3-yloxy)-6-morpholin-4-yl-[1,3,5]triazin-2-yl]-phenyl}-3-pyridin-4-yl-urea], for which the 50% inhibitory concentration (IC50) in assay [1] came to 0.592 µM; in assay [2] (setting [3]), 0.854 µM; on PI3K-α it was 0.006 µM; on Human mTOR (FLAG-TOR) it was 0.0061 µM; at PI3K-γ, 0.084 µM.
On to `CC(C)(C)OC(=O)N1CC(CNc2nc(-c3ccc(NC(=O)Nc4ccncc4)cc3)nc(N3CCOCC3)n2)C1` [Example 104, 3-({4-Morpholin-4-yl-6-[4-(3-pyridin-4-yl-ureido)-phenyl]-[1,3,5]triazin-2-ylamino}-methyl)-azetidine-1-carboxylic acid tert-butyl ester], for which the IC50 in assay [1] stood at 0.412 µM; in assay [2] (setting [3]) it was 0.684 µM; at PI3K-α, 0.019 µM; at Human mTOR (FLAG-TOR), 0.015 µM; on PI3K-γ, 0.234 µM.
`O=C(Nc1ccncc1)Nc1ccc(-c2nc(NCC3CNC3)nc(N3CCOCC3)n2)cc1` [Example 105, 1-(4-{4-[(azetidin-3-ylmethyl)-amino]-6-morpholin-4-yl-[1,3,5]triazin-2-yl}-phenyl)-3-pyridin-4-yl-urea]: the IC50 was 3.71 µM in assay [1]; > 10 µM in assay [2] (setting [3]); 0.014 µM at PI3K-α; 0.0305 µM at Human mTOR (FLAG-TOR); 0.112 µM on PI3K-γ.
Consider `O=C(Nc1ccncc1)Nc1ccc(-c2nc(N3CCOCC3)nc(N3CCC4(CC3)OCCO4)n2)cc1` [Example 130, 1-{4-[4-(1,4-dioxa-8-azaspiro[4.5]dec-8-yl)-6-morpholin-4-yl-1,3,5-triazin-2-yl]phenyl}-3-pyridin-4-ylurea], for which the IC50 is 0.191 µM in assay [1]; 0.416 µM in assay [2] (setting [4]); 0.416 µM in assay [2] (setting [3]); 0.014 µM on PI3K-α; 0.0135 µM on PI3K-α (listed as 705); 0.008 µM and 0.0124 µM on Human mTOR (FLAG-TOR). Moreover, the IC50 on PI3K-γ came to 0.132 µM.
`O=C(Nc1ccc(-c2nc(N3CCOCC3)nc(N3CCC4(CC3)OCCO4)n2)cc1)Nc1cccnc1` [Example 131, 1-{4-[4-(1,4-dioxa-8-azaspiro[4.5]dec-8-yl)-6-morpholin-4-yl-1,3,5-triazin-2-yl]phenyl}-3-pyridin-3-ylurea]: the IC50 is 0.696 µM in assay [1]; 0.839 µM in assay [2] (setting [4]); 0.839 µM in assay [2] (setting [3]); 0.025 µM at PI3K-α; 0.0255 µM at PI3K-α (listed as 706); 0.0145 µM on Human mTOR (FLAG-TOR). Further, at PI3K-γ, the IC50 amounted to 0.336 µM.
For the compound `O=C(Nc1ccccc1)Nc1ccc(-c2nc(N3CCOCC3)nc(N3CCC4(CC3)OCCO4)n2)cc1` [Example 132, 1-{4-[4-(1,4-dioxa-8-azaspiro[4.5]dec-8-yl)-6-morpholin-4-yl-1,3,5-triazin-2-yl]phenyl}-3-phenylurea], the IC50 was 0.586 µM in assay [1]; 1.01 µM in assay [2] (setting [4]); 1.01 µM in assay [2] (setting [3]); 0.014 µM on PI3K-α; 0.026 µM and 0.034 µM at Human mTOR (FLAG-TOR); 0.234 µM at PI3K-γ. Moreover, on PI3K-γ (listed as 707), the IC50 is 0.235 µM.
Regarding `CN(C)c1ccc(NC(=O)Nc2ccc(-c3nc(N4CCOCC4)nc(N4CCC5(CC4)OCCO5)n3)cc2)cc1` [Example 133, 1-[4-(dimethylamino)phenyl]-3-{4-[4-(1,4-dioxa-8-azaspiro[4.5]dec-8-yl)-6-morpholin-4-yl-1,3,5-triazin-2-yl]phenyl}urea], the half-maximal inhibitory concentration (IC50) in assay [1] worked out at 0.795 µM; in assay [2] (setting [4]), 1.95 µM; in assay [2] (setting [3]) it was 1.95 µM; at PI3K-α it was 0.039 µM; at PI3K-α (listed as 708) it was 0.0395 µM; at Human mTOR (FLAG-TOR), 0.043 µM. In addition, the IC50 on PI3K-γ and at PI3K-γ (listed as 708) was 8.89 µM each time.
For the compound `N#Cc1ccc(NC(=O)Nc2ccc(-c3nc(N4CCOCC4)nc(N4CCC5(CC4)OCCO5)n3)cc2)cc1` [Example 134, 1-(4-cyanophenyl)-3-{4-[4-(1,4-dioxa-8-azaspiro[4.5]dec-8-yl)-6-morpholin-4-yl-1,3,5-triazin-2-yl]phenyl}urea], the IC50 in assay [1] is 0.805 µM; in assay [2] (setting [4]), 0.857 µM; in assay [2] (setting [3]), 0.857 µM; at PI3K-α, 0.02 µM; on Human mTOR (FLAG-TOR) it was 0.0245 µM; on PI3K-γ, 0.183 µM. For the same compound, the concentration for half-maximal inhibition (IC50) on PI3K-γ (listed as 709) came to 0.182 µM.
